According to patent US7179825B2, “Retinoic acid mimetic anilides” (Janssen Pharmaceutica N.V., priority 1997, dated 2007):

How the values were obtained:
[1] = tested on: Ovariectomized rats; assay: Vaginal keratinization test on ovariectomized rats (Example C.2); format: in vivo; conditions: estradiol undecylate induced keratinization, per os once daily on days 1-3, active dose = 50% of rats show complete suppression
Procedure, shortened: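 Ovariectomized rats given s.c. estradiol undecylate (100 μg per 100 g body weight in sesame oil), then oral compound once daily on days 1-3 (vehicle PEG 200). Vaginas assessed histologically one day after last dose; lowest active dose (mg/kg) is the dose giving complete keratinization suppression in 50% of rats.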

[2] = tested on: metabolism of retinoic acid in human breast cancer cells; assay: Inhibition of retinoic acid (RA) metabolism (Example C.1); format: cell-based; conditions: MCF-7 human breast cancer cells, 3H-RA as substrate, concentration needed to reduce the amount of metabolites to 50% of the control
Procedure, shortened: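 MCF-7 cells, pre-stimulated with RA the day before, incubated with ³H-RA substrate and test compound in 1% DMSO. Polar ³H-metabolites separated from unmetabolized RA and counted by scintillation. IC50 is the concentration cutting metabolite formation to 50% of control, with blank run alongside.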

Row | SMILES | IC50 [2] | IC50 ([2]; MCF7) | LAD (lowest active dose) [1] | minimal effective dose ([1]; Rattus norvegicus, po, read-out: LAD (lowest active dose))
1 | CCC(CC)C(c1ccc(NC(=O)Cc2ccc(Cl)cc2)cc1)n1ccnc1 (racemic) [Compound 87] | 0.28 nM |  | 1.25 mg/kg | 
2 | CCC(CC)C(c1ccc(NC(=O)Cc2ccccc2OC)cc1)n1ccnc1 (racemic) [Compound 89] | 0.131 nM |  | 2.50 mg/kg | 
3 | CCC(CC)C(c1ccc(NC(=O)Cc2ccc(OC)c(OC)c2)cc1)n1ccnc1 (racemic) [Compound 91] | 0.935 nM |  | 2.50 mg/kg | 
4 | CCOc1ccc(CC(=O)Nc2ccc(C(C(CC)CC)n3ccnc3)cc2)cc1 (racemic) [Compound 95] | 1.48 nM |  | 5.00 mg/kg | 
5 | CCC(CC)C(c1ccc(NC(=O)Cc2ccc(O)c(OC)c2)cc1)n1ccnc1.O=C(O)C(=O)O (racemic) [Compound 97] | 1.32 nM |  | 2.50 mg/kg | 
6 | CCC(CC)C(c1ccc(NC(=O)Cc2ccc(N(C)C)cc2)cc1)n1ccnc1 (racemic) [Compound 99] | 5.77 nM |  | 2.50 mg/kg | 
7 | CCC(CC)C(c1ccc(NC(=O)Cc2ccc(Oc3ccccc3)cc2)cc1)n1ccnc1 (racemic) [Compound 103] | 7.11 nM |  | >2.50 mg/kg | 
8 | CCC(CC)C(c1ccc(NC(=O)Cc2ccccc2C)cc1)n1ccnc1 (racemic) [Compound 104] | 0.0407 nM |  | 2.50 mg/kg | 
9 | CCC(CC)C(c1ccc(NC(=O)Cc2ccc(OC)cc2)cc1)n1ccnc1 (racemic) [Compound 105] | 0.0516 nM |  | 2.50 mg/kg | 
10 | CCC(CC)C(c1ccc(NC(=O)Cc2cccc(O)c2)cc1)n1ccnc1.O=C(O)C(=O)O (racemic) [Compound 109] | 0.321 nM |  | 2.50 mg/kg | 
11 | CCC(CC)C(c1ccc(NC(=O)Cc2ccc(C)c(OC)c2)cc1)n1ccnc1 (racemic) [Compound 110] | 0.953 nM |  | >2.50 mg/kg | 
12 | CCC(CC)C(c1ccc(NC(=O)Cc2ccc(C)c(C)c2)cc1)n1ccnc1 (racemic) [Compound 112] | 0.989 nM |  | 2.50 mg/kg | 
13 | CCC(CC)C(c1ccc(NC(=O)Cc2ccc(Cl)cc2OC)cc1)n1ccnc1 (racemic) [Compound 113] | 0.852 nM |  | >2.50 mg/kg | 
14 | CCC(CC)C(c1ccc(NC(=O)Cc2ccc(O)c(Cl)c2)cc1)n1ccnc1 (racemic) [Compound 117] | 0.255 nM |  | >2.50 mg/kg | 
15 | C/C(=C\c1ccccc1)C(=O)Nc1ccc(C(C(C)C)n2cncn2)cc1 (racemic) [Compound 154, (±)-(E)-2-methyl-N-[4-[2-methyl-1-(1H-1,2,4-triazol-1-yl)propyl]phenyl]-3-phenyl-2-propenamide] |  | 4.14 nM |  | 5 mg/kg
16 | CC(C)C(c1ccc(NC(=O)/C=C/c2ccccc2)cc1)n1cncn1 (racemic) [Compound 155] | 50.1 nM |  | >10.00 mg/kg | 
17 | CC(=Cc1cccc(Cl)c1)C(=O)Nc1ccc(C(C(C)C)n2cncn2)cc1 (racemic) [Compound 156] | 31 nM |  | >10.00 mg/kg | 
18 | C/C(=C\c1ccc(F)cc1)C(=O)Nc1ccc(C(C(C)C)n2cncn2)cc1 (racemic) [Compound 157] | 84.8 nM |  | >10.00 mg/kg | 
19 | CCC(=O)Nc1ccc(C(C(C)C)n2ccnc2)cc1 (racemic) [Compound 163] | 2.36 nM |  | 20.00 mg/kg | 

Second part, led by results:

Row | IC50 [2] | IC50 ([2]; MCF7) | SMILES | LAD (lowest active dose) [1] | minimal effective dose ([1]; Rattus norvegicus, po, read-out: LAD (lowest active dose))
20 | 0.162 nM |  | CCC(CC)C(c1ccc(NC(=O)Cc2ccc(Cl)c(OC)c2)cc1)n1cncn1 (racemic) [Compound 83] | >2.50 mg/kg | 
21 | 1.74 nM |  | CCC(CC)C(c1ccc(NC(=O)Cc2ccc(C)c(OC)c2)cc1)n1cncn1 (racemic) [Compound 84] | >2.50 mg/kg | 
22 | 0.148 nM |  | CCC(CC)C(c1ccc(NC(=O)Cc2ccc(F)cc2)cc1)n1ccnc1 (racemic) [Compound 88] | 2.50 mg/kg | 
23 | 2.36 nM |  | CCC(CC)C(c1ccc(NC(=O)Cc2cccc(OC)c2)cc1)n1ccnc1 (racemic) [Compound 90] | 2.50 mg/kg | 
24 | 2.21 nM |  | CCC(CC)C(c1ccc(NC(=O)Cc2ccc(OC(C)C)cc2)cc1)n1ccnc1 (racemic) [Compound 92] | 5.00 mg/kg | 
25 | 1.59 nM |  | CCCOc1ccc(CC(=O)Nc2ccc(C(C(CC)CC)n3ccnc3)cc2)cc1 (racemic) [Compound 93] | 2.50 mg/kg | 
26 | 1.06 nM |  | CCC(CC)C(c1ccc(NC(=O)Cc2ccc(C)cc2)cc1)n1ccnc1 (racemic) [Compound 94] | 5.00 mg/kg | 
27 | 1.09 nM |  | CCCCOc1ccc(CC(=O)Nc2ccc(C(C(CC)CC)n3ccnc3)cc2)cc1 (racemic) [Compound 96] | 2.50 mg/kg | 
28 | 1.64 nM |  | CCC(CC)C(c1ccc(NC(=O)Cc2cc(OC)ccc2OC)cc1)n1ccnc1 (racemic) [Compound 98] | 5.00 mg/kg | 
29 | 0.0678 nM |  | CCC(CC)C(c1ccc(NC(=O)Cc2cccc(OC)c2OC)cc1)n1ccnc1 (racemic) [Compound 102] | 5.00 mg/kg | 
30 | 1.69 nM |  | CCC(CC)C(c1ccc(NC(=O)Cc2cc(C)ccc2C)cc1)n1ccnc1 (racemic) [Compound 106] | 2.50 mg/kg | 
31 | 1.44 nM |  | CCC(CC)C(c1ccc(NC(=O)Cc2ccccc2O)cc1)n1ccnc1 (racemic) [Compound 107] | >2.50 mg/kg | 
32 | 1.03 nM |  | CCC(CC)C(c1ccc(NC(=O)Cc2ccc(O)cc2)cc1)n1ccnc1 (racemic) [Compound 111] | >2.50 mg/kg | 
33 | 8.17 nM |  | CCC(CC)C(c1ccc(NC(=O)Cc2cccc(OC)c2OCc2ccccc2)cc1)n1ccnc1 (racemic) [Compound 115] | >2.50 mg/kg | 
34 | 0.678 nM |  | CCC(CC)C(c1ccc(NC(=O)Cc2ccc(OC)c(Cl)c2)cc1)n1ccnc1 (racemic) [Compound 116] | 2.50 mg/kg | 
35 | 2.24 nM |  | CCOc1ccc(CC(=O)Nc2ccc(C(C(CC)CC)n3ccnc3)cc2)cc1Cl (racemic) [Compound 118] | 2.50 mg/kg | 
36 | 0.914 nM |  | CCC(CC)C(c1ccc(NC(=O)Cc2ccc(OCc3ccccn3)cc2)cc1)n1ccnc1 (racemic) [Compound 121] | >2.50 mg/kg | 
37 | 2.4 nM |  | CCC(CC)C(c1ccc(NC(=O)Cc2cc(C)ccc2OC)cc1)n1ccnc1 (racemic) [Compound 122] | >2.50 mg/kg | 
38 | 0.0247 nM |  | CCC(CC)C(c1ccc(NC(=O)Cc2ccc(OC)c(C)c2)cc1)n1ccnc1 (racemic) [Compound 123] | 2.50 mg/kg | 
39 | 0.194 nM |  | CCOc1ccc(CC(=O)Nc2ccc(C(C(CC)CC)n3ccnc3)cc2)cc1C (racemic) [Compound 125] | 2.50 mg/kg | 
40 | < 0.01 nM |  | CCC(CC)C(c1ccc(NC(=O)Cc2ccc(OC)cc2OC)cc1)n1ccnc1 (racemic) [Compound 126] | 2.50 mg/kg | 
41 | 86.5 nM |  | CC(C)C(c1ccc(NC(=O)C(F)=Cc2ccccc2)cc1)n1cncn1 (racemic) [Compound 160] | 10.00 mg/kg | 
